We go through one compound from US10640545B2 (THE GOVERNORS OF THE UNIVERSITY OF ALBERTA, priority 2017, dated 2020).

Data set [1] deals with NEP (Homo sapiens, UniProt P08473). The experiment in a line: Neprilysin inhibition assay (degradation of 1 after preincubation with peptide). It counts as biochemical. Also on record: purchased Sino Biological. The following applies: preincubation of NEP with equimolar peptide. The method, then: This experiment investigates the ability of synthetic peptides 8-19 to inhibit the inherent proteolytic activity of NEP.
Assays were performed in duplicate (n=2) for each time point.

The target in data set [2] is T1, KLKB1 (plasma kallikrein) (Homo sapiens, UniProt P03952).
T1 construct: purchased Novoprotein
The experiment in a line: In vitro KLKB1 stability (half-life). It counts as in vitro ADME. To be noted: human.

Data set [3] relates to C57BL/6 mice. The experiment in a line: Cardiac allograft vasculopathy, heterotopic heart transplant. It counts as in vivo. The following applies: male hearts into female B6 mice, 3 mg/kg/d intraperitoneal for 4 weeks from 2 weeks after transplant. How it is done:
B6 male hearts were transplanted heterotopically into […] female B6 of the recipient mice, starting 2 weeks after transplant. Synthesized apelin peptide (Apelin-NMe17A2) (11), was given by daily intraperitoneal injection (3 mg/kg/d) for 4 weeks. Female mice raise immune response against the male HY antigen, injure the coronary arteries of the transplanted heart based on Verhoeff-Van Gieson staining (FIG. 17) leading to progressive expansion of the arterial intima occluding the arterial lumen (FIG. 18).
C57BL/6J mice were purchased from Jackson Laboratories. The C57BL/6 mice subjected to surgery were 11-14 weeks old. All animal experiments were carried out according to the Canadian Council on Animal Care Guidelines. Animal protocols were approved by the Animal Care and Use Committee at the University of Alberta. Hearts from 12-14 weeks male wild-type (WT) donors were transplanted heterotopically to the abdomen of the female WT recipients. […] Cardiac allograft vasculopathy (CAV) was induced due to the presence of HY-minor histocompatibility antigen-directed, cell-mediated allo-immune response against the male donor hearts. The heart grafts were harvested six weeks after transplantation. Intima area, endothelial loss in medium to large-sized arteries, inflammatory cellular infiltration, microvasculature density and tip cell markers using Immunohistochemistry and qPCR were characterized.

The nature of data set [4]: in vitro. To be noted: human, plasma.
The subject of data set [5] is Ldlr^−/− mice. In words: Angiotensin II-induced abdominal aortic aneurysm. It counts as in vivo. How it is done:
Experimental Animals and Protocols. Male LDL receptor deficient (Ldlr^−/−) mice were generated and bred in C57BL/6 background. All animal experiments were carried out in accordance with the Canadian Council on Animal Care Guidelines, and animal protocols were reviewed and approved by the Animal Care and Use Committee at the University of Alberta.
Alzet micro-osmotic pump (model 1002 or 1004; Durect Co.) was implanted subcutaneously at the dorsum of the neck to infuse Ang II (1.5 mg/kg^−1d^−1) or vehicle (saline) for 28 days in high fat fed Ldlr^−/− mice.
After 4 weeks of Ang II or saline infusion, mice underwent whole body perfuse-fixation, via the left ventricle, with 10% buffered formalin (80 mmHg, 20 min). […] Collagen positive area was quantified by the morphometric analysis using the Metamorph Basic (version 7.7.0.0) software. In situ DNA fragmentation was detected in 5-μm thick FFPE sections of aorta using the commercially available terminal deoxynucleotidyl transferase-mediated dUTP nick-end labeling (TUNEL) assay kit according to manufacturer's instructions (Invitrogen) as previously described. […] Thickness of the medial layer of the aorta was measured in calibrated images as the mean distance between the external elastin lamella and the internal elastin lamella from 8 randomly selected fields of the cross-section of an aorta using the Metamorph Basic software (version 7.7.0). […]

The structures appear in SMILES notation. Where a SMILES comes first, the peptide text is derived from it. [ ]: non-standard residue; d: D form. Phe(4-Br) = N[C@@H](Cc1ccc(Br)cc1)C(=O)O; NMeL = CN[C@@H](CC(C)C)C(=O)O; Nle = CCCC[C@H](N)C(=O)O; Aib = CC(C)(N)C(=O)O

NEP, sequence (P08473 whole entry): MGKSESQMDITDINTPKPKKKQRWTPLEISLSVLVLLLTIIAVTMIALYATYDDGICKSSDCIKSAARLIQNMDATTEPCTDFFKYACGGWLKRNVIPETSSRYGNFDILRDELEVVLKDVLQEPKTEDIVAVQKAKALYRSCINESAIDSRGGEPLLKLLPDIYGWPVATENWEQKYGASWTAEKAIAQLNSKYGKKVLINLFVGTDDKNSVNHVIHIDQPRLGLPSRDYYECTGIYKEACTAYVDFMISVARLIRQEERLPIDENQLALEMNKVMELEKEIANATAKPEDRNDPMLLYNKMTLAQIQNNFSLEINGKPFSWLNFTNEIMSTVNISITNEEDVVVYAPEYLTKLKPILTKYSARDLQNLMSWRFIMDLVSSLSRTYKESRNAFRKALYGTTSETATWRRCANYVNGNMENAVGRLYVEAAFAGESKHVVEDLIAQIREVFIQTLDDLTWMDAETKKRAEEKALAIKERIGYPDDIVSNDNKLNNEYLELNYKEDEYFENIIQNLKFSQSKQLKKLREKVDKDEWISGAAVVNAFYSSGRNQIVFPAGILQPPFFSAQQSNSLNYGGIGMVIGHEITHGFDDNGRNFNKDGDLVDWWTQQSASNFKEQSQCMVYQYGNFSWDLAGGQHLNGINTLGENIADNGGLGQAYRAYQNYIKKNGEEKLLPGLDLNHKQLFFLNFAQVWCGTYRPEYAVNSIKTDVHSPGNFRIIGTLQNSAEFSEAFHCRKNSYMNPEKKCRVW
T1 sequence (P03952 20-638): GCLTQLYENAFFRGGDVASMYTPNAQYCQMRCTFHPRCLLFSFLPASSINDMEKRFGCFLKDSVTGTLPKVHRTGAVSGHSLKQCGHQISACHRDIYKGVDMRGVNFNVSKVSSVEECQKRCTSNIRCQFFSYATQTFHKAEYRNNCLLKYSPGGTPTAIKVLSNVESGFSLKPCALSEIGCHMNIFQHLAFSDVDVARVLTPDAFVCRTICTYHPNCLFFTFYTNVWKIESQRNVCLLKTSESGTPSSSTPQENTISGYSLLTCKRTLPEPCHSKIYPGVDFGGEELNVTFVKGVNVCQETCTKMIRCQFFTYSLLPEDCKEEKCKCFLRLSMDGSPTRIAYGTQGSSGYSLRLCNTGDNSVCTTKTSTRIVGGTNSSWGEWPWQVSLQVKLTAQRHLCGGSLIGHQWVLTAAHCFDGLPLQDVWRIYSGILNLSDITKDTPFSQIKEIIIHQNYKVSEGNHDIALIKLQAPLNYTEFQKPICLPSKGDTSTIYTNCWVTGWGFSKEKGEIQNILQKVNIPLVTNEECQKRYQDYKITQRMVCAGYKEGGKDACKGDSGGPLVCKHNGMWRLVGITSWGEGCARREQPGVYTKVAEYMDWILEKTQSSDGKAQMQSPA

The half-life is the time in which the quantity being followed falls by half. A higher half-life goes with slow decline. As a reminder, the amount remaining is the share of the starting amount still present when the sample was taken. Low readings indicate more turnover, high ones less turnover. Take `CCCC[C@H](NC(=O)[C@@H]1CCCN1C(=O)CNC(=O)[C@H](CCCCN)NC(=O)[C@H](Cc1c[nH]cn1)NC(=O)[C@H](CO)NC(=O)[C@H](CC(C)C)N(C)C(=O)[C@H](CCCNC(=N)N)NC(=O)[C@@H]1CCCN1C(=O)[C@H](CCCNC(=N)N)NC(=O)[C@H](CCC(N)=O)NC(=O)[C@H](CCCNC(=N)N)NC(=O)[C@H](CCCNC(=N)N)NC(=O)[C@H](Cc1ccccc1)NC(=O)[C@@H](N)CCCCN)C(=O)NC(C)(C)C(=O)N[C@@H](Cc1ccc(Br)cc1)C(=O)O` [Peptide 11] (H-KFRRQRPR[NMeL]SHKGP[Nle][Aib][Phe(4-Br)]-OH; C-terminus assumed): the “inhibition of the proteolytic activity of NEP” value in data set [1] was “no ability to inhibit the inherent activity of NEP”. In data set [2], this compound showed a half-life of 54 min. The “transplant arteriopathy (intima/lumen of coronary arteries)” value in data set [3] is given as “mitigates arteriopathy”. In data set [4], this compound registered a share remaining at 0.5 h, 80 µM of 49 ± 10% and a fraction remaining at 1 h, 80 µM of 47 ± 7%. For the same compound, in data set [5] (aorta of Ldlr^−/− mice, Ang II + peptide), the “oxidative stress (DHE fluorescence and NADPH oxidase activity)” value is reported as “suppression of oxidative stress”. The “formation of abdominal aortic aneurysm” value in data set [5] (high fat fed Ldlr^−/− mice, Ang II 1.5 mg/kg/d 28 days, peptide 3 mg/kg/d intraperitoneal 28 days) is on record as “markedly prevented the formation of abdominal aortic aneurysm”.
